Patent US20160051542A1 (CHANRX CORPORATION, priority 2013, published 2016)

Experiments:
[1] = Daily dosing for 11 consecutive days, PK and hemodynamics (Example 2); format: in vivo, human
[2] = tested on: recent onset symptomatic AF/AFL; experiment: Randomised double-blind single oral dose study: conversion of recent onset symptomatic AF/AFL to sinus rhythm (Example 1); format: in vivo, human; details: for Conversion of Atrial Flutter, %: pure atrial flutter subjects (N 4), any time within 24 hours
Description: (§1) The vanoxerine or identical appearing placebo was randomly assigned and administered in a double-blinded fashion.
Inclusion criteria included: male or female over the age of […], symptomatic AF/AFL for more than 3 hours and less than 7 days, as dated by symptoms, and adherence to local clinical standards or the […] practice guidelines for AF/AFL regarding thromboembolic event prevention and treatment
Exclusion Criteria Included: • (a) Systolic blood pressure <100 mmHG, HR <50 bpm • (b) Average QTcF >440 ms, […] >140 ms • (c) Paced atrial or ventricular rhythm • (d) Serum potassium <3.5 meq/L • (e) History of receiving another Class 1 or Class III antiarrhythmic drug within 3 days of randomization, amiodarone (oral or IV) within 3 months • (f) Acute coronary syndrome within 30 days prior to randomization • (g) Aortic stenosis with AVA ≦1.0 cm^2 • (h) Mitral stenosis with MVA of <1.5 cm^2 • (i) Acute pulmonary edema/embolism • (j) Stroke within 30 days or TIA within 48 hours • (k) Untreated hyperthyroidism • (l) Acute pericarditis • (m) Postoperative AF/AFL within 7 days • (n) History of failed Direct current cardioversion • (o) History of polymorphic ventricular tachycardia (e.g. Torsade de Pointes) • (p) History or family history of long QT syndrome • (q) History of ventricular tachycardia requiring drug or device therapy • (r) History of NYHA Heart Failure Class III or IV or recent (within 1 month) onset of heart failure not related to rapid ventricular response AF • (s) Ejection fraction of 35% or less • (t) History of prior ablation therapy for cardiac arrhythmias
4-Hour Efficacy Endpoints: • (a) the proportion of subjects who convert to sinus rhythm for at least 1 minute through 4 hours after start of study drug. • (b) the proportion of subjects in sinus rhythm at 4 hours after start of study drug • (c) time to restoration of sinus rhythm within 4 hours
24-Hour Efficacy Endpoints • (a) the proportion of subjects who convert to sinus rhythm for at least 1 minute through 24 hours after start of study drug. • (b) the proportion of subjects in sinus rhythm at 24 hours after start of study drug • (c) time to restoration of sinus rhythm within 24 hours
Statistical Considerations: • (a) Placebo subjects in all dose cohorts pooled to create one placebo dose group for comparison to the active dose groups • (b) each dose group compared separately with placebo • (c) Fisher's exact tests for difference in proportions between each dose level and placebo • (d) Time to restoration tested using the Kaplan-Meier method with difference in survivor functions; Log-Rank test used to compare each dose level with placebo • (e) No correction for multiple comparisons among dose groups.

[3] = Adverse events in the single dose AF/AFL study (Example 1); format: in vivo, human
Excerpt: as §1

[4] = Daily dosing for 14 days in healthy patients (Example 3); format: in vivo, human; details: 25, 75 and 125 mg daily for 14 days, meal 15 minutes prior to dosing
Description: A standardized meal was served 15 minutes prior to each dosing.

[5] = Preliminary studies of daily use over 7, 10 and 14 days; format: in vivo; details: 75, 100, 125 and 150 mg a day over 7, 10 and 14 days
Excerpt: However, control and prevention of events of cardiac arrhythmia are important to these patients to prevent future re-occurrences and the deleterious effects and morbidity.

[6] = Daily dosing for 7 days in four patients (Example 4); format: in vivo, human; details: 50, 100 and 150 mg daily, all patients
[7] = human, in vivo
Excerpt: Furthermore, steady state plasma levels are achieved within 3 days of oral dosing in some studies and up to 14 days in other studies. In human studies, the typical time is between about 3-11 days for reaching steady state status. […] This provides for an opportunity to achieve steady state plasma levels for restoration or maintenance of normal sinus rhythm in mammals.

For `Fc1ccc(C(OCCN2CCN(CCCc3ccccc3)CC2)c2ccc(F)cc2)cc1` [vanoxerine, 1-[2-[bis(4-fluorophenyl)methoxy]ethyl]-4-(3-phenylpropyl)piperazine], the Plasma levels ([1]; 25 mg daily) was “not detectable after 8 hours”, the PK linearity ([1]; 50, 75 and 100 mg doses) was “linear and dose proportional” and the Plasma levels ([1]; 50, 75 and 100 mg doses) was “detectable at 24 hours”. The “Time at which steady state was reached” value ([1]; 50, 75 and 100 mg doses) was ≤ 8 days, the “Heart rate and systolic blood pressure” value ([1]; 75 and 100 mg doses) was “increased slightly in most subjects” and the “Percent conversion to sinus rhythm” value ([2]; 200 mg single dose, 0-4 hr) was 18%. The “Percent conversion to sinus rhythm” value ([2]; 200 mg single dose, 0-8 hr) was 45%, the “Percent conversion to sinus rhythm” value ([2]; 200 mg single dose, 0-24 hr) was 59% and the “Conversion of Atrial Flutter, %” value ([2]; 200 mg) was 50%. For the same compound, the “Percent conversion to sinus rhythm” value ([2]; 300 mg single dose, 0-4 hr) was 40%, the “Percent conversion to sinus rhythm” value ([2]; 300 mg single dose, 0-8 hr) was 52% and the “Percent conversion to sinus rhythm” value ([2]; 300 mg single dose, 0-24 hr) was 64%. The “Conversion of Atrial Flutter, %” value ([2]; 300 mg) was 75%, the “Percent conversion to sinus rhythm” value ([2]; 400 mg single dose, 0-4 hr) was 52% and the “Percent conversion to sinus rhythm” value ([2]; 400 mg single dose, 0-8 hr) was 76%. The “Percent conversion to sinus rhythm” value ([2]; 400 mg single dose, 0-24 hr) was 84%, the “Conversion of Atrial Flutter, %” value ([2]; 400 mg) was 75% and the “Conversion to sinus rhythm” value ([2]; all doses of vanoxerine, at about 7 hours) was “greater than 40%”. The “Conversion to sinus rhythm” value ([2]; all doses, at 12 hours) was “greater than 50%”, the “Conversion to sinus rhythm” value ([2]; all doses, at about 16 hours) was ~60% and the “Number of adverse events reported” value ([3]; 200 mg) was 8 AEs. For the same compound, the “Subjects reporting adverse events, N (%)” value ([3]; 200 mg (22 subjects)) was 4 (18%) subjects, the “Number of adverse events reported” value ([3]; 300 mg) was 12 AEs and the “Subjects reporting adverse events, N (%)” value ([3]; 300 mg (25 subjects)) was 7 (28%) subjects. The “Number of adverse events reported” value ([3]; 400 mg) was 23 AEs, the “Subjects reporting adverse events, N (%)” value ([3]; 400 mg (25 subjects)) was 10 (40%) subjects and the Tolerability ([3]; 200, 300 and 400 mg single doses) was “well tolerated at all doses”. For the same compound, the “1:1 AFL post dose” value ([3]; all doses) was “No 1:1 AFL seen post dose in any subject”, the “Serious adverse events, all doses” value ([3]; all doses, neither related to the study drug) was “two” and the Proarrhythmia ([3]; single doses 200-400 mg) was “absence of proarrhythmia”. For the same compound, the Adverse events [4] was “No significant adverse events”, the “Heart rate and systolic blood pressure” value [5] was “may lead to increased heart rate and systolic blood pressure” and the “Time to steady state levels” value [6] was “within one week”. For the same compound, the “Time for reaching steady state status” value [7] was 3 to 11 days.
